Results: patent US20110117165A1, “IMPLANTABLE BONE GRAFT MATERIALS” (AFFINERGY, INC., priority 2009, published 2011)
Ends that are not written are not given here. MP = mini-PEG unit; Mpa = O=C(O)CCS

Experiments:
BMP-2 [1] = biological target: T1, BMP-2 (Homo sapiens, UniProt P12643); assay: Binding of immobilized biotinylated BMP binding peptides to BMP-2 (ELISA); settings: BMP-2 at 200, 20 and 2 nM, 45 minutes
T1 sequence (P12643 283-396): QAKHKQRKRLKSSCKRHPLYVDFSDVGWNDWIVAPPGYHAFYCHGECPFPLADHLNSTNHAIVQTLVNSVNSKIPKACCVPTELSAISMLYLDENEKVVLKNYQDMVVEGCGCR
Protocol: (§1) BMP binding peptides SEQ ID NOs:1-4 & 8-10 were identified as described in US Patent Application Publication No. US20060051395A1. Briefly, the peptides were identified by phage display using immobilized BMP-2 as a substrate for the phage library selections. Synthetic peptides SEQ ID NOs: 1-2 were determined to bind to BMP-2 with a relative EC50 value of 0.8 nM and 0.9 nM, respectively (data not shown). Separately, the relative binding affinity of peptides SEQ ID NOs: 1-2 for BMP-2 is shown in FIG. 14A (SEQ ID NO: 1 is denoted as P9 and SEQ ID NO: 2 is denoted as P10). Briefly, the results shown in FIG. 14A were generated by immobilizing biotinylated BMP binding peptides SEQ ID NOs:1 & 2 on streptavidin coated plates. Serial dilutions of 200 nM, 20 nM and 2 nM of BMP-2 were incubated with the immobilized BMP binding peptides for 45 minutes, washed, and bound BMP quantified using ELISA.

C2C12 cells = assay: Alkaline phosphatase secretion by C2C12 cells in response to BMP-2; assay type: cell-based; settings: peptide 0-3500 nM, 3 days
Protocol: In an experiment to test the biological activity of BMP-2 delivered by BMP binding peptide, alkaline phosphatase secreted by C2C12 cells in response to BMP-2 was measured in the presence and absence of BMP binding peptide in solution. C2C12 cells were incubated with BMP-2 (35 nM) and BMP binding peptide at a concentration ranging from 0-3500 nM. The C2C12 cells were incubated with the BMP-2 and BMP binding peptide for 3 days and the alkaline phosphatase assay was performed as described herein above.

BMP-5 = biological target: T2, BMP-5 (Homo sapiens, UniProt P22003); assay: Binding of immobilized BMP binding peptides to BMP-5 (ELISA); settings: BMP at 100 nM and 10 nM
T2 sequence (P22003 317-454): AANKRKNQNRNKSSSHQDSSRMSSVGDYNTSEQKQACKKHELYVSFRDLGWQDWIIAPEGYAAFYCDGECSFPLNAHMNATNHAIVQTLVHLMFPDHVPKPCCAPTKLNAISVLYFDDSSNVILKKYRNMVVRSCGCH
Protocol: as §1
(§2) BMP binding peptides SEQ ID NOs: 5-7 were identified as described in US Patent Application Publication No. US20090098175A1. Briefly, the peptides were identified by phage display using immobilized GDF-7 (GDF-7 is BMP-12) as a substrate for the phage library selections. […] The data shown in FIG. 14C were collected similarly to that described above for FIGS. 14A-14B except that the serial dilutions of BMP were 100 nM and 10 nM.

BMP-7 = biological target: T3, BMP-7 (Homo sapiens, UniProt P18075); assay: Binding of immobilized BMP binding peptides to BMP-7 (ELISA)
T3 sequence (P18075 293-431): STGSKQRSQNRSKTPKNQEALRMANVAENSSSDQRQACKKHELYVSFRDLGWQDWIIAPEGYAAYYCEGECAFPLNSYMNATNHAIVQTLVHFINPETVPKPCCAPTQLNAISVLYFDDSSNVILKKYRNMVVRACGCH

BMP-6 = biological target: T4, BMP-6 (Homo sapiens, UniProt P22004); assay: Binding of immobilized BMP binding peptides to BMP-6 (ELISA); settings: BMP at 100 nM and 10 nM
T4 sequence (P22004 375-513): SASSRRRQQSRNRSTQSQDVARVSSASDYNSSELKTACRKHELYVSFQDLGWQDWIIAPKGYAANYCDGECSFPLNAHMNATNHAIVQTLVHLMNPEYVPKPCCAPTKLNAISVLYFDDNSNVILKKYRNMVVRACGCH
Protocol: as §1, §2

GDF-7 (BMP-12) = biological target: T5, GDF-7 (BMP-12) (Homo sapiens, UniProt Q7Z4P5); assay: Binding to GDF-7 (phage display selection substrate)
T5 sequence (Q7Z4P5 322-450): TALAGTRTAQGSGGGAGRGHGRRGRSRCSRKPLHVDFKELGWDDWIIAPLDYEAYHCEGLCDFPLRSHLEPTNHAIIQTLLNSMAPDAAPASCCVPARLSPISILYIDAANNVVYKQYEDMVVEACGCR
Protocol: as §2

BMP-2 [2] = biological target: T6, BMP-2 (UniProt P12643 283-396); assay: collagenase digest of sponge after 24 h in plasma, ELISA; data not shown
T6 construct: also called bone morphogenic protein 2
Protocol: The BMP binding peptide-modified […] collagen sponges generated in Example 2 were evaluated for ability to bind and retain BMP-2. […] The amount of BMP-2 released into the plasma at each time-point was measured by ELISA (QUANTIKINE, R&D SYSTEMS), and the amount retained on the sponge after 24 h was estimated by Western blot analysis. […] After 24 h, the sponges were digested by collagenase, and the amount of BMP-2 retained on the sponges was quantified by ELISA.

BMP-2 [3] = biological target: T6, BMP-2; assay: relative EC50 of synthetic peptide on BMP-2; format not described, data not shown
BMP-2 [4] = biological target: T6, BMP-2; assay: relative EC50 of peptide on BMP-2; format not described, data not shown

## GGALGFPLKGEVVEGWA-NH2 (C-terminus assumed) [SEQ ID NO: 2]
BMP-2 [1]
  relative binding affinity for BMP-2 (FIG. 14A): high relative affinity
C2C12 cells; BMP-2 35 nM
  effect on BMP-2 biological activity (alkaline phosphatase secretion): does not interfere with the biological activity of BMP-2
C2C12 cells
  BMP-2 activity of the peptide on its own: does not have BMP-2 activity on its own
BMP-5
  binding to BMP-5 (FIG. 14C): bind
BMP-7
  relative binding affinity for BMP-7 (FIG. 14B): high relative affinity
BMP-6
  binding to BMP-6 (FIG. 14C): bind

## GGGAWEAFSSLSGSRV [SEQ ID NO: 1]
BMP-2 [1]
  relative binding affinity for BMP-2 (FIG. 14A): high relative affinity
BMP-5
  binding to BMP-5 (FIG. 14C): bind
BMP-7
  relative binding affinity for BMP-7 (FIG. 14B): high relative affinity
BMP-6
  binding to BMP-6 (FIG. 14C): bind

## SSGGVGGWALFETLRGKEVSR [SEQ ID NO: 6]
GDF-7 (BMP-12)
  binding to GDF-7: binding GDF-7
BMP-5
  binding to BMP-5 (FIG. 14C): bind
BMP-6
  binding to BMP-6 (FIG. 14C): bind

## SSGPREIWDSLVGVVNPGWSR [SEQ ID NO: 5]
GDF-7 (BMP-12)
  binding to GDF-7: binding GDF-7
BMP-5
  binding to BMP-5 (FIG. 14C): bind
BMP-6
  binding to BMP-6 (FIG. 14C): bind

## SSVAEWALRSWEGMRVGEASR [SEQ ID NO: 7]
GDF-7 (BMP-12)
  binding to GDF-7: binding GDF-7
BMP-5
  binding to BMP-5 (FIG. 14C): bind
BMP-6
  binding to BMP-6 (FIG. 14C): bind

B1: BMP binding peptide SEQ ID NO: 1 containing a free thiol group, covalently attached to HELISTAT collagen (peptide)
peptide: GGGAWEAFSSLSGSRV
modifications: also: free thiol group added, position and spacer not given here, attached to collagen through a disulfide
notes: also called Peptide2; Peptide 2
BMP-2 [2]
  fold BMP-2 retained against unmodified sponge after 24 h: > 40 fold

B2: BMP binding peptide SEQ ID NO: 1 (peptide)
peptide: GGGAWEAFSSLSGSRV
modifications: also: biotinylated, position not given here
notes: Synthetic peptide found by phage display on immobilized BMP-2; also called P9
BMP-2 [3]
  EC50: 0.8 nM

B3: BMP binding peptide SEQ ID NO: 6 (peptide)
peptide: SSGGVGGWALFETLRGKEVSR
modifications: also: biotinylated for plate assay, position not given here
notes: Found by phage display on immobilized GDF-7; also called P12
BMP-2 [4]
  EC50: 1.8 nM

B4: BMP binding peptide SEQ ID NO: 2 (peptide)
peptide: GGALGFPLKGEVVEGWA
modifications: also: biotinylated, position not given here
notes: Synthetic peptide found by phage display on immobilized BMP-2; also called P10
BMP-2 [3]
  EC50: 0.9 nM

B5: BMP binding peptide SEQ ID NO: 5 (peptide)
peptide: SSGPREIWDSLVGVVNPGWSR
modifications: also: biotinylated, position not given here
notes: Found by phage display on immobilized GDF-7; also called P11
BMP-2 [4]
  EC50: 2 nM

B6: BMP binding peptide SEQ ID NO: 7 (peptide)
peptide: SSVAEWALRSWEGMRVGEASR
modifications: also: biotinylated for plate assay, position not given here
notes: Found by phage display on immobilized GDF-7; also called P13
BMP-2 [4]
  EC50: 1.1 nM

B7: HS-Propionyl-MP-MP-(SEQ ID NO: 2)-amide, covalently attached to collagen (peptide)
peptide: {Mpa-MP-MP}-GGALGFPLKGEVVEGWA-NH2
modifications: also: attached to collagen through a disulfide
notes: also called Peptide1
BMP-2 [2]
  fold BMP-2 retained against unmodified sponge after 24 h: > 40 fold
